# Reference: US12077503B2, “Substituted cyclic amides and their use as herbicides” (FMC CORPORATION, priority 2015, dated 2024)
# Assays:
# Assay type in all cases: in vivo
# [1] = system: ivy-leaved morning glory (Ipomoea hederacea); assay: Test G Pre-Emergence Protocol; conditions: evaluated after 13 days
# Protocol: (§1) Seeds of corn (Zea mays), giant foxtail (Setaria faberi), barnyardgrass (Echinochloa crus-galli), ivy-leaved morning glory (Ipomoea hederacea), redroot pigweed (Amaranthus retroflexus) and velvetleaf (Abutilon theophrasti) were sown in standard soil in pots. After cultivation for one day under controlled conditions in a glasshouse (at 24/16° C., day/night; 14 hours light; 65% humidity), the plants were sprayed with an aqueous spray solution derived from the formulation of the technical active ingredient in acetone/water (50:50) solution containing 0.5% Tween 20 (polyoxyethylene sorbitan monolaurate, CAS RN 9005-64-5) to give a final dose of 15.625, 62.5 or 250 g/ha of test compound.
# (§2) The test plants were then grown on under controlled conditions in a glasshouse (at 24/16° C., day/night; 14 hours light; 65% humidity) and watered twice daily. After 13 days the test was evaluated (100=total damage to plant; 0=no damage to plant). A dash (-) means no test result.
# [2] = system: velvetleaf (Abutilon theophrasti); assay: Test G Pre-Emergence Protocol; conditions: evaluated after 13 days
# Protocol: as §1, §2
# [3] = system: redroot pigweed (Amaranthus retroflexus); assay: Test G Pre-Emergence Protocol; conditions: evaluated after 13 days
# Protocol: as §1, §2
# [4] = system: giant foxtail (Setaria faberi); assay: Test G Pre-Emergence Protocol; conditions: evaluated after 13 days
# Protocol: as §1, §2
# [5] = system: corn (Zea mays); assay: Test G Pre-Emergence Protocol; conditions: evaluated after 13 days
# Protocol: as §1, §2
# [6] = system: barnyardgrass (Echinochloa crus-galli); assay: Test G Pre-Emergence Protocol; conditions: evaluated after 13 days
# Protocol: as §1, §2
# [7] = system: ivy-leaved morning glory (Ipomoea hederacea); assay: Test G Post-Emergence Protocol
# Protocol: as §1, with “8 days” for “one day”
# as §2
# [8] = system: velvetleaf (Abutilon theophrasti); assay: Test G Post-Emergence Protocol
# Protocol: as §1, with “8 days” for “one day”
# as §2
# [9] = system: redroot pigweed (Amaranthus retroflexus); assay: Test G Post-Emergence Protocol
# Protocol: as §1, with “8 days” for “one day”
# as §2
# [10] = system: giant foxtail (Setaria faberi); assay: Test G Post-Emergence Protocol
# Protocol: as §1, with “8 days” for “one day”
# as §2
# [11] = system: corn (Zea mays); assay: Test G Post-Emergence Protocol
# Protocol: as §1, with “8 days” for “one day”
# as §2
# [12] = system: barnyardgrass (Echinochloa crus-galli); assay: Test G Post-Emergence Protocol
# Protocol: as §1, with “8 days” for “one day”
# as §2
# [13] = 62.5 g ai/ha, 100=total damage to plant, 0=no damage to plant
# [14] = 15.625 g ai/ha, evaluated after 13 days (100=total damage to plant; 0=no damage to plant)
# [15] = 62.5 g ai/ha, evaluated after 13 days
# [16] = 250 g ai/ha, evaluated after 13 days
# [17] = 62.5 g ai/ha, evaluated after 13 days, 100=total damage to plant, 0=no damage to plant
# [18] = 250 g ai/ha, evaluated after 13 days, 100=total damage to plant, 0=no damage to plant
compound,measurement,setting,value
CN1CC(c2ccc(C(F)(F)F)cc2)C(C(=O)Nc2ccncc2[N+](=O)[O-])C1=O (racemic) [Compound 1568],"Morning-glory, Ivy-leaved damage rating (100=total damage to plant; 0=no damage to plant)",[1]; 15.625 g ai/ha,0
same,"plant damage rating, Morningglory, Ivy-leaved",[1]; [13],0
same,"Morningglory, Ivy-leaved damage rating (100=total damage to plant; 0=no damage to plant)",[1]; 250 g ai/ha,0
same,Velvetleaf damage rating (100=total damage to plant; 0=no damage to plant),[2]; 15.625 g ai/ha,0
same,"plant damage rating, Velvetleaf",[2]; [13],0
same,Velvetleaf damage rating (100=total damage to plant; 0=no damage to plant),[2]; 250 g ai/ha,0
same,"Pigweed, Redroot damage rating (100=total damage to plant; 0=no damage to plant)",[3]; 15.625 g ai/ha,0
same,"plant damage rating, Pigweed, Redroot",[3]; [13],0
same,"Pigweed, Redroot damage rating (100=total damage to plant; 0=no damage to plant)",[3]; 250 g ai/ha,0
same,"Foxtail, Giant damage rating (100=total damage to plant; 0=no damage to plant)",[4]; 15.625 g ai/ha,0
same,"plant damage rating, Foxtail, Giant",[4]; [13],0
same,"Foxtail, Giant damage rating (100=total damage to plant; 0=no damage to plant)",[4]; 250 g ai/ha,0
same,Corn damage rating (100=total damage to plant; 0=no damage to plant),[5]; 15.625 g ai/ha,0
same,"plant damage rating, Corn",[5]; [13],0
same,Corn damage rating (100=total damage to plant; 0=no damage to plant),[5]; 250 g ai/ha,0
same,Barnyardgrass damage rating (100=total damage to plant; 0=no damage to plant),[6]; 15.625 g ai/ha,0
same,"plant damage rating, Barnyardgrass",[6]; [13],0
same,Barnyardgrass damage rating (100=total damage to plant; 0=no damage to plant),[6]; 250 g ai/ha,0
same,"Morningglory, Ivy-leaved damage rating",[7]; [14],0
same,"Morningglory, Ivy-leaved damage rating (100=total damage to plant; 0=no damage to plant)",[7]; [15],0
same,"damage to plant, Morningglory, Ivy-leaved (100=total damage to plant; 0=no damage to plant)",[7]; [16],0
same,Velvetleaf damage rating,[8]; [14],0
same,Velvetleaf damage rating (100=total damage to plant; 0=no damage to plant),[8]; [15],0
same,"damage to plant, Velvetleaf (100=total damage to plant; 0=no damage to plant)",[8]; [16],0
same,"Pigweed, Redroot damage rating",[9]; [14],0
same,"Pigweed, Redroot damage rating (100=total damage to plant; 0=no damage to plant)",[9]; [15],0
same,"damage to plant, Pigweed, Redroot (100=total damage to plant; 0=no damage to plant)",[9]; [16],0
same,"Foxtail, Giant damage rating",[10]; [14],0
same,"Foxtail, Giant damage rating (100=total damage to plant; 0=no damage to plant)",[10]; [15],0
same,"damage to plant, Foxtail, Giant (100=total damage to plant; 0=no damage to plant)",[10]; [16],0
same,Corn damage rating,[11]; [14],0
same,Corn damage rating (100=total damage to plant; 0=no damage to plant),[11]; [15],0
same,"damage to plant, Corn (100=total damage to plant; 0=no damage to plant)",[11]; [16],10
same,Barnyardgrass damage rating,[12]; [14],0
same,Barnyardgrass damage rating (100=total damage to plant; 0=no damage to plant),[12]; [15],10
same,"damage to plant, Barnyardgrass (100=total damage to plant; 0=no damage to plant)",[12]; [16],20
Cc1cccc(NC(=O)[C@H]2C(=O)N(C)C[C@@H]2c2ccc(C(F)(F)F)cc2)c1S(C)(=O)=O (racemic) [Compound 1677],"Morningglory, Ivy-leaved damage rating (100=total damage to plant; 0=no damage to plant)",[1]; 15.625 g ai/ha,0
same,"Morningglory, Ivy-leaved damage rating",[1]; [13],0
same,"Morningglory, Ivy-leaved damage rating (100=total damage to plant; 0=no damage to plant)",[1]; 250 g ai/ha,0
same,Velvetleaf damage rating (100=total damage to plant; 0=no damage to plant),[2]; 15.625 g ai/ha,0
same,Velvetleaf damage rating,[2]; [13],0
same,Velvetleaf damage rating (100=total damage to plant; 0=no damage to plant),[2]; 250 g ai/ha,0
same,"Pigweed, Redroot damage rating (100=total damage to plant; 0=no damage to plant)",[3]; 15.625 g ai/ha,0
same,"Pigweed, Redroot damage rating",[3]; [13],0
same,"Pigweed, Redroot damage rating (100=total damage to plant; 0=no damage to plant)",[3]; 250 g ai/ha,0
same,"Foxtail, Giant damage rating (100=total damage to plant; 0=no damage to plant)",[4]; 15.625 g ai/ha,10
same,"Foxtail, Giant damage rating",[4]; [13],40
same,"Foxtail, Giant damage rating (100=total damage to plant; 0=no damage to plant)",[4]; 250 g ai/ha,70
same,Corn damage rating (100=total damage to plant; 0=no damage to plant),[5]; 15.625 g ai/ha,0
same,Corn damage rating,[5]; [13],0
same,Corn damage rating (100=total damage to plant; 0=no damage to plant),[5]; 250 g ai/ha,0
same,Barnyardgrass damage rating (100=total damage to plant; 0=no damage to plant),[6]; 15.625 g ai/ha,0
same,Barnyardgrass damage rating,[6]; [13],0
same,Barnyardgrass damage rating (100=total damage to plant; 0=no damage to plant),[6]; 250 g ai/ha,10
same,"Morningglory, Ivy-leaved damage rating",[7]; [14],0
same,"Morningglory, Ivy-leaved damage rating",[7]; [17],0
same,"Morningglory, Ivy-leaved damage rating",[7]; [18],0
same,Velvetleaf damage rating,[8]; [14],0
same,Velvetleaf damage rating,[8]; [17],0
same,Velvetleaf damage rating,[8]; [18],0
same,"Pigweed, Redroot damage rating",[9]; [14],0
same,"Pigweed, Redroot damage rating",[9]; [17],0
same,"Pigweed, Redroot damage rating",[9]; [18],0
same,"Foxtail, Giant damage rating",[10]; [14],10
same,"Foxtail, Giant damage rating",[10]; [17],30
same,"Foxtail, Giant damage rating",[10]; [18],50
same,Corn damage rating,[11]; [14],0
same,Corn damage rating,[11]; [17],0
same,Corn damage rating,[11]; [18],0
same,Barnyardgrass damage rating,[12]; [14],0
same,Barnyardgrass damage rating,[12]; [17],10
same,Barnyardgrass damage rating,[12]; [18],10
